These results are taken from patent publication US9351950B2, “Method for preventing or treating allergic disease using capsiate or salt thereof” (CATHOLIC UNIVERSITY OF KOREA INDUSTRY-ACADEMIC COOPERATION …, priority 2014, dated 2016).

Assay [1] deals with serum IgE. As to the kind of experiment: Serum IgE level (ELISA) in atopic dermatitis mouse model induced by DNFB. It counts as in vivo, mice. The method, then: (§1) DNFB was sensitized by being diluted to 0.15% with a vehicle in which acetone and olive oil are mixed in a ratio of 3:1. Atopic dermatitis was induced by treating twice with a 0.2% DNFB solution. The capsiate-treated group was coated with 1 mM capsiate dissolved in acetone, 1 hour before DNFB treatment (See FIG. 5).
IgE capture antibody was added in the plate, and allowed to stand at 4° C. overnight. The next day, the capture antibody was washed with PBS/Tween buffer, and blocking buffer was added, followed by reaction at room temperature for 1 hour. After the blocking buffer was washed out, IgE standard and mouse serum were added, followed by standing at 4° C. overnight. The next day, after washing was performed, the IgE detection antibody was added, followed by reaction at room temperature for 1 hour. After washing was again performed, Streptavidin-HRP was added, followed by a reaction at room temperature for 30 minutes. After washing was again performed, TMB as a substrate was added. Then, a stop solution was added, and the absorbance was measured using an ELISA reader.

Assay [2] relates to Th2 cell differentiation, lymph node. Description: Th2 cell differentiation in lymph node of atopic dermatitis mouse model. Type of assay: in vivo, mice. The following applies: lymph node cells; intracellular staining CD4, IL-4, IL-5; dosing as in example 3-1. The method, then:
as §1
After lymphocytes were taken out from mice, a single cell suspension was prepared, and then 3 μg/ml of anti-CD28 antibody was added in the plate to which anti-CD3 antibody adheres, followed by incubation for 3 days. On the third day, PMA (20 ng/ml) and ionomycin (1 μM) were added, followed by incubation for 5 hours. The cells were collected, and then subjected to intracellular staining using Cytofix/Cytoperm kit (BD bioscience) and anti-CD4 antibody, anti-IL-4 antibody, and anti-IL-5 antibody (BD bioscience). The dosing concentrations of DNFB and capsiate were the same as in example <3-1> above.

Assay [3] has as its system atopic dermatitis sites of mice. Description: Cytokine expression (real-time PCR) in mouse atopic dermatitis sites. Type of assay: in vivo. The following applies: atopic dermatitis site, 1 mM capsiate, dosing as in example 3-1. The method, then:
as §1
The cytokine inhibitory effect of capsiate was verified at atopic dermatitis sites of mice. The dosing concentrations of DNFB and capsiate were the same as in example <3-1> above, and the transcript expressions of cytokines IL-4 and TSLP were confirmed through real-time PCR. Real-time PCR conditions were established by the same method as in example <1-2> above, and the primer set was purchased from QIAGEN.

The test system of assay [4] is activated mouse bone marrow derived mast cells (BMMCs). As to the kind of experiment: Real-time PCR of cytokine transcripts in activated BMMCs. It counts as cell-based. The following applies: 50 μM, 37° C., 4 hours; BMMCs activated by anti-mouse DNP-IgE and DNP-HSA. The method, then:
(§2) Bone marrow cells were obtained from tibias and femurs of approximately 8 to 10 week old C57/BL/6 mice and cultured in RPMI 1640 media supplemented with 10% FCS, 100 U/ml of penicillin, 100 μg/ml of streptomycin in the presence of mIL-3 (10 ng/ml) and mSCF (50 ng/ml) for 6 weeks in an incubator containing 5% CO2 at 37° C. […] BMMC were activated by 1 μg/ml of anti-mouse DNP-IgE for overnight, followed by the treatment with 10 ng/ml of DNP-HSA for 6 hr to 24 hr.
In order to understand the inhibitory effect of capsiate on the increase in cytokines in activated BMMCs, BMMCs were treated with 50 μM of capsiate at 37° C. for 4 hours, and the transcript expressions of cytokines IL-6 and TNF-α were confirmed through real-time PCR. Total RNAs were isolated from […] with RNeasy Mini kit (Quiagen, Valencia, Calif., USA) and the first strand of cDNA was synthesized using QuantTect Reverse Transcription kit (Quiagen, Germany). Real-time PCR was performed using KAPA SYBR fast qPCR kit (KAPA Blosystems, Woburn, Mass., USA). The following parameters were used for the PCR: 95° C. for 10 mins, followed by 50 cycles of 95° C. for 20 s, 55° C. for 30 s, and 72° C. for 20s. The gene expression levels were normalized with GAPDH expression level. The primer sets for IL-6 and TNF-α were purchased from QIAGEN.

Assay [5] deals with passive cutaneous anaphylaxis (PCA). As to the kind of experiment: Passive cutaneous anaphylaxis (PCA): capillary vessel permeability and mouse ear thickness. It counts as in vivo. On the procedure: The passive cutaneous anaphylaxis inhibitory effect of capsiate was verified by measuring capillary vessel permeability and mouse ear thickness. The capillary vessel permeability was verified by intravenously injecting Evan's blue, which is a blue staining agent, mixed with antigen, and quantifying the staining agent coming out from ear capillary vessels to the skin tissue. The quantification was conducted by cutting the ear tissue, putting the cut ear tissue in formamide, performing incubation at 65° C. for 16 hours, extracting Evan's blue in the ear tissue, and measuring the absorbance. The mouse ear thickness was measured using D15 ear thickness gauge.

The subject of assay [6] is atopic dermatitis sites of mice. As to the kind of experiment: Chemokine expression (real-time PCR) in mouse atopic dermatitis sites. It counts as in vivo. The following applies: atopic dermatitis site, 1 mM capsiate, dosing as in example 3-1. On the procedure: as §1
The chemokine inhibitory effect of capsiate in atopic dermatitis sites of mice was verified. The dosing concentrations of DNFB and capsiate were the same as in example <3-1> above, and the transcript expressions of chemokines CCL11, CCL17, and CCL22 were confirmed through real-time PCR. Real-time PCR conditions were established by the same method as in example <1-2> above, and the primer set was purchased from QIAGEN.

For assay [7], the system named is atopic dermatitis induced by 2,4-dinitro-1-fluorobenzene (DNFB) in mice. As to the kind of experiment: Atopic dermatitis induced by DNFB in mice, histological staining and epidermal thickness. It counts as in vivo. The following applies: 1 mM capsiate in acetone coated 1 hour before DNFB treatment. On the procedure:
as §1
After being cut with induced atopic dermatitis, the skin tissue was fixed in 4% formaldehyde for 24 hours, followed by washing and dehydration, and then a […] skin section was prepared using a paraffin block. The tissue section was deparaffinized with xylene, immerged in alcohol, and then stained with hematoxyline and eosin. After the staining, the tissue was observed using a phase contrast microscope. As for the dermal thickness, the dermal thicknesses at five places on the tissue image were measured, and the mean and standard deviation thereof were obtained and shown on a graph.

Assay [8] relates to Th2 cell differentiation, spleen. Description: Th2 cell differentiation in spleen of atopic dermatitis mouse model. It counts as in vivo, mice. The following applies: spleen cells; intracellular staining CD4, IL-4, IL-5; dosing as in example 3-1. The method, then: as §1
After the spleen was taken out from mice, a single cell suspension was prepared, and then 3 μg/ml of anti-CD28 antibody was added in the plate to which anti-CD3 antibody adheres, followed by incubation for 3 days. On the third day, PMA (20 ng/ml) and ionomycin (1 μM) were added, followed by incubation for 5 hours. The cells were collected, and then subjected to intracellular staining using Cytofix/Cytoperm kit (BD bioscience) and anti-CD4 antibody, anti-IL-4 antibody, and anti-IL-5 antibody (BD bioscience). The dosing concentrations of DNFB and capsiate were the same as in example <3-1> above.

Assay [9] deals with BMCC induced with IgE antigen. As to the kind of experiment: Pro-inflammatory cytokine expression (real-time PCR) in BMCC induced with IgE antigen. Type of assay: cell-based, mouse. The source says: The inflammatory cytokine expression inhibitory effect of capsiate was verified in BMCC induced with IgE antigen. The transcript expressions of cytokines IL-1β, IL-6, and TNF-α were verified through real-time PCR. Real-time PCR conditions were established by the same method as in example <1-2> above, and the primer set was purchased from QIAGEN.

For assay [10], the system named is activated human mast cell line (HMC-1 cells). As to the kind of experiment: Real-time PCR of cytokine transcripts in activated HMC-1 cells. The following applies: 50 μM, 37° C., 4 hours; HMC-1 cells activated with A23187 and PMA; normalized with GAPDH. It counts as cell-based. On the procedure: HMC-1 cells were grown in IMDM media supplemented with 100 U/ml of penicillin, 100 µg/ml of streptomycin, and 10% heat-inactivated FBS in an incubator containing 5% CO2 at 37° C. HMC-1 cells were activated by treatment with A23187 and PMA
In order to understand the inhibitory effect of capsiate on the increase of cytokines in activated HMC-1 cells, HMC-1 cells were treated with 50 μM of capsiate and capsaicin at 37° C. for 4 hours, respectively, and the transcript expressions of cytokines IL-6 and TNF-α were confirmed through real-time PCR. Total RNA was isolated from HMC-1 cells with RNeasy Mini kit (Quiagen, Valencia, Calif., USA) and the first strand of cDNA was synthesized using QuantTect Reverse Transcription kit (Quiagen, Germany). Real-time PCR was performed using KAPA SYBR fast qPCR kit (KAPA Blosystems, Woburn, Mass., USA). The following parameters were used for the PCR: 95° C. for 10 minutes, followed by 50 cycles of 95° C. for 20 seconds, 55° C. for 30 seconds, and 72° C. for 20 seconds. The gene expression levels were normalized with GAPDH expression level. The primer sets for IL-6 and TNF-α were purchased from QIAGEN.

In assay [11] the test system is activated mouse bone marrow derived mast cells (BMMCs). As to the kind of experiment: ELISA of cytokines in activated BMMCs. The following applies: 50 μM, 37° C., 16 hours. Type of assay: cell-based. On the procedure:
as §2
(§3) In order to understand the inhibitory effect of capsiate on the increase of cytokines in activated BMMCs, BMMCs were treated with 50 μM of capsiate at 37° C. for 16 hours, and the expression levels of cytokines IL-6 and TNF-α were confirmed through ELISA assay. Capture antibody for IL-6 or TNF-α was added in ELISA plate and incubated overnight 4° C. Next day, the capture antibody was washed with PBS/Tween buffer, and blocking buffer was added. After 1 hr incubation at room temperature, the blocking buffer was washed out and standard or sample supernatant was added. The plate was incubated overnight at 4° C. and washed out. After washing, detection antibody for IL-6 and TNF-α was added and incubated for 1 hr at room temperature, followed by washing the plate. Streptavidin-HRP was added to each well, incubated at room temperature for 30 mins, and then the plate was washed. TMB was used as a substrate. After TMB was added to the plate, stop solution was added to stop color development, and the plate was read using ELISA reader.

Assay [12] concerns activated human mast cell line (HMC-1 cells). Description: ELISA of cytokines in activated HMC-1 cells. It counts as cell-based. The following applies: 50 μM, 37° C., 16 hours. The method, then: as §3, with “HMC-1 cells were grown in IMDM media supplemented with 100 U/ml of penicillin, 100 µg/ml of streptomycin, and 10% heat-inactivated FBS in an incubator containing 5% CO2 at 37° C. HMC-1 cells were activated by treatment with A23187 and PMA In order” for “In order”, “in activated HMC-1 cells, HMC-1 cells were treated” for “in activated BMMCs, BMMCs were treated”, “of capsiate and capsaicin at 37°” for “of capsiate at 37°”, “Capture antibody was added” for “Capture antibody for IL-6 or TNF-α was added”, “detection antibody was added” for “detection antibody for IL-6 and TNF-α was added”

`COc1cc(COC(=O)CCCC/C=C/C(C)C)ccc1O` [capsiate]: the “level of serum IgE increased due to DNFB” value in assay [1] was “decreased”. Moreover, the “Th2 cell differentiation increased by DNFB at the lymph node” value in [2] is given as “inhibited”. Also, in assay [3], the “transcript expression of IL-4 increased by DNFB” value is “decreased” and the “transcript expression of TSLP increased by DNFB” value is recorded as “decreased”. Also, in assay [4], the “transcript expression of IL-6 (real-time PCR)” value was “significantly decreased” and the “transcript expression of TNF-α (real-time PCR)” value was “significantly decreased”. Moreover, in assay [5] (Evan's blue extracted from mouse ear tissue, absorbance), the “capillary vessel permeability increased by DNP IgE” value is recorded as “inhibited”. The “ear edema increased by DNP IgE” value in assay [5] (mouse ear thickness, ear thickness gauge) was “inhibited”. In addition, in [6], the “transcript expression of CCL11 increased by DNFB” value is reported as “decreased”, the “transcript expression of CCL17 increased by DNFB” value was “decreased” and the “transcript expression of CCL22 increased by DNFB” value is “decreased”. Moreover, in [7], the “atopic dermatitis induced by DNFB in the mice” value is “inhibited”. Besides, in assay [7] (H&E stained skin section), the “dermal thickness increased by DNFB” value is “decreased”. Also, the “Th2 cell differentiation increased by DNFB in the spleen” value in [8] was “inhibited”. Besides, in assay [9], the “transcript expression of IL-1β increased by IgE antigen” value was “decreased”, the “transcript expression of IL-6 increased by IgE antigen” value is “decreased” and the “transcript expression of TNF-α increased by IgE antigen” value was “decreased”. In assay [10], the “transcript expression of IL-6 (real-time PCR)” value is “significantly decreased” and the “transcript expression of TNF-α (real-time PCR)” value is on record as “significantly decreased”. In assay [11], the “expression level of IL-6 (ELISA)” value is on record as “significantly decreased” and the “expression level of TNF-α (ELISA)” value is given as “significantly decreased”. In addition, in [12], the “expression level of IL-6 (ELISA)” value is reported as “significantly decreased” and the “expression level of TNF-α (ELISA)” value is recorded as “significantly decreased”.

For `COc1cc(CNC(=O)CCCC/C=C/C(C)C)ccc1O` [capsaicin, reference compound], the “transcript expression of IL-6 (real-time PCR)” value in [4] and in assay [10] was “increased” each time. In addition, the “transcript expression of TNF-α (real-time PCR)” value in assay [4] and in [10] was “increased” throughout. In addition, the “expression level of IL-6 (ELISA)” value in assay [11] and in assay [12] was “increased” in each case. Moreover, the “expression level of TNF-α (ELISA)” value in assay [11] and in [12] was “increased” each time.
